In ChEMBL document CHEMBL1126897, “Tyrphostins. 3. Structure-activity relationship studies of alpha-substituted benzylidenemalononitrile 5-S-aryltyrphostins” (J Med Chem, 1993):

Tests used:
[1] = target: T1, Epidermal growth factor receptor (Homo sapiens, UniProt P00533); experiment: Inhibitory concentration against EGF receptor by polyGAT phosphorylation
[2] = target: T1, Epidermal growth factor receptor; experiment: Inhibitory concentration against EGF receptor by autophosphorylation
[3] = target: T1, Epidermal growth factor receptor; experiment: Inhibition of polyGAT phosphorylation by EGF receptor

T1 sequence (P00533 whole entry): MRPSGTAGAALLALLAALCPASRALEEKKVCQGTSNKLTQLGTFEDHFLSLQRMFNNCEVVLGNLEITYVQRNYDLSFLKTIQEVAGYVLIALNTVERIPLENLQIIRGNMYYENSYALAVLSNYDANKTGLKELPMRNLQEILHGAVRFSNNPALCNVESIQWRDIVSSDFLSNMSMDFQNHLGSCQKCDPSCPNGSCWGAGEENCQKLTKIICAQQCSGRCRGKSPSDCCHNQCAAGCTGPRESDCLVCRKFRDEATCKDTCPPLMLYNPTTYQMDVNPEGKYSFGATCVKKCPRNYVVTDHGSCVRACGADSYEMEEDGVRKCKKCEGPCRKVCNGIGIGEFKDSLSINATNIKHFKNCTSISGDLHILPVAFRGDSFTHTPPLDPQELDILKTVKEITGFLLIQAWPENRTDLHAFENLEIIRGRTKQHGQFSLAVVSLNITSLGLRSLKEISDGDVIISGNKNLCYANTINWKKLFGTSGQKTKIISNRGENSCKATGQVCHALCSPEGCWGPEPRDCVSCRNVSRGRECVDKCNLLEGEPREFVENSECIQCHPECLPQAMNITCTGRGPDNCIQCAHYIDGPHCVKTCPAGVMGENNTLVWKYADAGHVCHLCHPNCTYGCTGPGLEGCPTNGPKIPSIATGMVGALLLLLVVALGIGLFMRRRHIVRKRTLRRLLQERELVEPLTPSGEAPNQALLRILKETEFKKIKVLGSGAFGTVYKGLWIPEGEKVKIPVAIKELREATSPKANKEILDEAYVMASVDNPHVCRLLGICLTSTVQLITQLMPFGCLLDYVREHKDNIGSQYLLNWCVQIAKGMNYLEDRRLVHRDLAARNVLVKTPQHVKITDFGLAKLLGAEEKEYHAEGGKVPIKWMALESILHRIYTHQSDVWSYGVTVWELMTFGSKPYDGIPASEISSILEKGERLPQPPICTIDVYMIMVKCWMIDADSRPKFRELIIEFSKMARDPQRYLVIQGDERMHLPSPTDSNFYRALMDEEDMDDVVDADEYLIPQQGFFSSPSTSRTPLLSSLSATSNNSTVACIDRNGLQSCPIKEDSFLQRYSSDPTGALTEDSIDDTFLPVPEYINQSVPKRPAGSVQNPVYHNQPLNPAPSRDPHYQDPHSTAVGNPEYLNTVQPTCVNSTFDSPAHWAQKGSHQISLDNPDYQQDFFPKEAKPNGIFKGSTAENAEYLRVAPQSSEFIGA

Compound	IC50 [1] [µM]	IC50 [2] [µM]	IC50 [3] [µM]
COc1cc(/C=C(\C#N)C(N)=O)cc(CSc2nc3cc(Cl)ccc3s2)c1O	4.4	> 83	–
COc1cc(/C=C(\C#N)C(N)=O)cc(CSc2ccccc2NC(C)=O)c1O	5.6	22	–
Cc1cc(C=C(C#N)C#N)cc(O)c1O	5.6	62	–
COc1cc(/C=C(\C#N)C(=O)c2ccc(O)c(O)c2)cc(CSCc2ccccc2)c1O	0.75	4.5	–
COc1cc(/C=C(\C#N)C(N)=O)cc(CSc2ccccc2)c1O	2.9	0.4	–
CCOc1ccc2nc(SCc3cc(/C=C(\C#N)C(N)=O)cc(OC)c3O)sc2c1	–	> 167	> 100
COc1cc(/C=C(\C#N)C(N)=O)cc(CSc2nc3ccccc3o2)c1O	12.5	5.3	–
COc1cc(C=C(C#N)C#N)cc(CSc2ccccc2C(=O)O)c1O	36	8	–
COc1cc(/C=C(\C#N)C(N)=O)cc(CSc2ccccn2)c1O	25	3.4	–
COc1cc(/C=C(\C#N)C(N)=O)cc(CSCc2ccc(Cl)cc2)c1O	14.8	16	–
COc1cc(/C=C(\C#N)C(N)=O)cc(CSc2ccccc2C(=O)O)c1O	37	0.71	–
COc1cc(C=C(C#N)C#N)cc(C)c1O	2600	87	–
COc1cc(C=C(C#N)C#N)cc(CSCC(=O)O)c1O	96	54	–
COc1cc(C=C(C#N)C#N)cc(CSc2ccccc2)c1O	370	6.7	–
COc1cc(/C=C(\C#N)C(N)=O)cc(CSCc2ccccc2Cl)c1O	2.5	1	–
COc1cc(/C=C(\C#N)C(N)=O)cc(CSCc2ccccc2)c1O	1.95	0.9	–
COc1cc(/C=C(\C#N)C(N)=O)cc(CSc2ccc3ccccc3c2)c1O	6.6	1.7	–
COc1cc(/C=C(\C#N)C(N)=O)cc(CSc2nc3ccccc3[nH]2)c1O	75	14.5	–
N#C/C(=C\c1cc(O)c(O)c(CSc2nc3ccccc3s2)c1)C(N)=O	6.5	3.2	–
COc1cc(C=C(C#N)C#N)cc(CS(=O)(=O)c2ccc(C)cc2)c1O	85	23	–
COc1cc(/C=C(\C#N)C(N)=O)cc(CSc2ccc(O)cc2)c1O	2.5	2.5	–
COc1cc(/C=C(\C#N)C(N)=O)cc(CSCCC(=O)O)c1O	–	–	125
N#C/C(=C\c1cc(O)c(O)c(CSCc2ccccc2)c1)C(N)=O	0.94	0.64	–
